From PubChem BioAssay (NCI)
Several values for one entry are separate records, joined by “and”; a condition that tells them apart may be missing. Equal values may be shown once.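 Values below derive from 48-hour exposures of cells grown in 96-well plates, with endpoints linearly interpolated between the two concentrations bracketing the appropriate inhibition level. Here, GI50 denotes the concentration required for 50% inhibition of growth. At the TGI there is no net growth.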

What was measured:
Test in all cases: inhibition of tumour cell growth, NCI panel, 48 h
OVCAR-5 ovarian = tested on: OVCAR-5 ovarian
NCI-H23 lung = tested on: NCI-H23 lung
UACC-257 melanoma = tested on: UACC-257 melanoma
SW-620 colon = tested on: SW-620 colon
SNB-19 CNS = tested on: SNB-19 CNS
NCI-H460 lung = tested on: NCI-H460 lung
T-47D breast = tested on: T-47D breast
DU-145 prostate = tested on: DU-145 prostate
ACHN renal = tested on: ACHN renal
SF-295 CNS = tested on: SF-295 CNS

Compound: CC(=O)Nc1ccc(Nc2nc(=O)[nH]c(=O)[nH]2)cc1
- TGI (OVCAR-5 ovarian): > 100 µM
- TGI (NCI-H23 lung): > 100 µM
- TGI (UACC-257 melanoma): > 100 µM
- TGI (SW-620 colon): > 100 µM
- TGI (SNB-19 CNS): > 100 µM
- TGI (NCI-H460 lung): > 100 µM
- TGI (T-47D breast): > 100 µM
- TGI (DU-145 prostate): > 100 µM
- TGI (ACHN renal): > 100 µM
- TGI (SF-295 CNS): > 100 µM

Compound: C=C(Br)CN(C#N)CC(=C)Br
- TGI (OVCAR-5 ovarian): > 100 µM
- TGI (NCI-H23 lung): > 100 µM
- TGI (UACC-257 melanoma): > 100 µM
- TGI (SW-620 colon): > 100 µM
- TGI (SNB-19 CNS): > 100 µM
- TGI (NCI-H460 lung): > 100 µM
- TGI (T-47D breast): > 100 µM
- TGI (DU-145 prostate): > 100 µM
- TGI (ACHN renal): > 100 µM
- TGI (SF-295 CNS): > 100 µM

Compound: COc1ccc(CN=CN/C(C#N)=C(\N)C#N)cc1OC
- TGI (OVCAR-5 ovarian): > 100 µM
- TGI (NCI-H23 lung): > 100 µM
- TGI (UACC-257 melanoma): > 100 µM
- TGI (SW-620 colon): > 100 µM
- TGI (SNB-19 CNS): > 100 µM
- TGI (NCI-H460 lung): > 100 µM
- TGI (T-47D breast): > 100 µM
- TGI (DU-145 prostate): > 100 µM
- TGI (ACHN renal): > 100 µM
- TGI (SF-295 CNS): > 100 µM

Compound: COc1ccc2c(c1)CC[C@@H]1[C@@H]2CC[C@]2(C)/C(=N/OCCN3CCCCC3)CC[C@@H]12
- TGI (OVCAR-5 ovarian): 16.6 µM
- TGI (NCI-H23 lung): 25 µM
- TGI (UACC-257 melanoma): 5.34 µM
- TGI (SW-620 colon): 20.3 µM
- TGI (SNB-19 CNS): 21 µM
- TGI (NCI-H460 lung): 5.68 µM
- TGI (T-47D breast): 19.2 µM
- TGI (DU-145 prostate): 14.7 µM
- TGI (ACHN renal): 21.3 µM
- TGI (SF-295 CNS): 12.6 µM

Compound: COC(=O)CC1C2CC3C(C2=O)C13 (centres undefined)
- TGI (OVCAR-5 ovarian): > 100 µM
- TGI (NCI-H23 lung): > 100 µM
- TGI (UACC-257 melanoma): > 100 µM
- TGI (SW-620 colon): > 100 µM
- TGI (SNB-19 CNS): > 100 µM
- TGI (NCI-H460 lung): > 100 µM
- TGI (T-47D breast): > 100 µM
- TGI (DU-145 prostate): > 100 µM
- TGI (ACHN renal): > 100 µM
- TGI (SF-295 CNS): > 100 µM

Compound: CC1(C)N=C(N)N=C(N)N1c1cccc(CSc2ccccc2)c1
- TGI (OVCAR-5 ovarian): > 100 µM
- TGI (NCI-H23 lung): > 100 µM
- TGI (UACC-257 melanoma): > 100 µM
- TGI (SW-620 colon): > 100 µM
- TGI (SNB-19 CNS): > 100 µM
- TGI (NCI-H460 lung): > 100 µM
- TGI (T-47D breast): > 100 µM
- TGI (DU-145 prostate): > 100 µM
- TGI (ACHN renal): > 100 µM
- TGI (SF-295 CNS): > 100 µM

Compound: COc1ccc(-c2cc(-c3ccc(Nc4ccnc5cc(Cl)ccc45)cc3)nc(N)c2C#N)c2ccccc12
- TGI (OVCAR-5 ovarian): > 100 µM
- TGI (NCI-H23 lung): > 100 µM
- TGI (UACC-257 melanoma): > 100 µM
- TGI (SW-620 colon): > 100 µM
- TGI (SNB-19 CNS): > 100 µM
- TGI (NCI-H460 lung): > 100 µM
- TGI (T-47D breast): > 100 µM
- TGI (DU-145 prostate): > 100 µM
- TGI (ACHN renal): > 100 µM
- TGI (SF-295 CNS): > 100 µM

Compound: Cc1nn(-c2ccccc2)c(C)c1/C=N/NC(=O)c1sc(=S)n(-c2ccccc2)c1N
- TGI (OVCAR-5 ovarian): > 100 µM
- TGI (NCI-H23 lung): > 100 µM
- TGI (UACC-257 melanoma): > 100 µM
- TGI (SW-620 colon): > 100 µM
- TGI (SNB-19 CNS): > 100 µM
- TGI (NCI-H460 lung): 16.3 µM
- TGI (T-47D breast): > 100 µM
- TGI (DU-145 prostate): > 100 µM
- TGI (ACHN renal): 4.32 µM
- TGI (SF-295 CNS): 6.55 µM

Compound: COc1ccc(-c2cn3c(n2)sc2cc(C)ccc23)cc1
- TGI (OVCAR-5 ovarian): > 100 µM
- TGI (NCI-H23 lung): > 100 µM
- TGI (UACC-257 melanoma): 24.2 µM
- TGI (SW-620 colon): > 100 µM
- TGI (SNB-19 CNS): > 100 µM
- TGI (NCI-H460 lung): > 100 µM
- TGI (T-47D breast): > 100 µM
- TGI (DU-145 prostate): > 100 µM
- TGI (ACHN renal): > 100 µM
- TGI (SF-295 CNS): 52.5 µM

Compound: COC1C(O)=C2C(=O)OC(C)(O)/C=C/C=C\C=C/C=C/C(c3ccccc3)NC(=O)/C=C/C=C/C=C/C=C/C2(C)C1O (centres undefined)
- GI50 (OVCAR-5 ovarian): 0.0649 µM
- TGI (OVCAR-5 ovarian): 0.566 µM and 0.224 µM
- TGI (NCI-H23 lung): 0.119 µM and 0.129 µM
- GI50 (UACC-257 melanoma): 0.0838 µM
- TGI (UACC-257 melanoma): 0.17 µM and 0.31 µM
- TGI (SW-620 colon): 0.0498 µM
- GI50 (SNB-19 CNS): 0.0133 µM
- TGI (SNB-19 CNS): 0.239 µM and 0.112 µM
- TGI (NCI-H460 lung): 0.0149 µM and 0.131 µM
- TGI (T-47D breast): 0.0707 µM
- TGI (DU-145 prostate): 0.0769 µM and 0.123 µM
- TGI (ACHN renal): 0.0323 µM and 0.119 µM
- GI50 (SF-295 CNS): 0.0296 µM
- TGI (SF-295 CNS): 0.0747 µM and 0.206 µM

Compound: COC(=O)c1c(O)ccc2c1c1c(n2C)C(=O)c2ccccc2C1=O
- TGI (OVCAR-5 ovarian): > 100 µM
- TGI (NCI-H23 lung): 78.2 µM
- TGI (UACC-257 melanoma): > 100 µM
- TGI (SW-620 colon): > 100 µM
- TGI (SNB-19 CNS): 50.9 µM
- TGI (NCI-H460 lung): > 100 µM
- TGI (T-47D breast): 13.1 µM
- TGI (DU-145 prostate): 72.7 µM
- TGI (ACHN renal): 35.8 µM
- TGI (SF-295 CNS): 65.6 µM

Compound: COC(=O)C(Cc1ccccc1)NC(=O)CNC(=O)CSc1nnc(COc2ccc(Cl)cc2)n1-c1ccccc1 (centres undefined)
- TGI (OVCAR-5 ovarian): 33.6 µM
- TGI (NCI-H23 lung): 35.6 µM
- TGI (UACC-257 melanoma): 28.8 µM
- TGI (SW-620 colon): 47 µM
- TGI (SNB-19 CNS): 31.4 µM
- TGI (NCI-H460 lung): 32.2 µM
- TGI (T-47D breast): 51.4 µM
- TGI (DU-145 prostate): 33 µM
- TGI (ACHN renal): 27.2 µM
- TGI (SF-295 CNS): 31.7 µM

Compound: COc1cccc(-c2cc(=O)c3cc(C)cnc3[nH]2)c1
- TGI (OVCAR-5 ovarian): > 100 µM
- TGI (NCI-H23 lung): > 100 µM
- TGI (UACC-257 melanoma): > 100 µM
- TGI (SW-620 colon): > 100 µM
- TGI (SNB-19 CNS): > 100 µM
- TGI (NCI-H460 lung): > 100 µM
- TGI (T-47D breast): > 100 µM
- TGI (DU-145 prostate): > 100 µM
- TGI (ACHN renal): > 100 µM
- TGI (SF-295 CNS): > 100 µM

Compound: CCCCCCCCOCC1S(=O)(=O)OCCOS1(=O)=O
- TGI (OVCAR-5 ovarian): > 100 µM
- TGI (NCI-H23 lung): > 100 µM
- TGI (UACC-257 melanoma): > 100 µM
- TGI (SW-620 colon): > 100 µM
- TGI (SNB-19 CNS): > 100 µM
- TGI (NCI-H460 lung): > 100 µM
- TGI (T-47D breast): > 100 µM
- TGI (DU-145 prostate): > 100 µM
- TGI (ACHN renal): > 100 µM
- TGI (SF-295 CNS): > 100 µM

Compound: O=C(CCCC(=O)N1CC(CCl)c2ccc([N+](=O)[O-])cc21)N1CC(CCl)c2ccc([N+](=O)[O-])cc21 (centres undefined)
- TGI (OVCAR-5 ovarian): > 100 µM
- TGI (NCI-H23 lung): > 100 µM
- TGI (UACC-257 melanoma): > 100 µM
- TGI (SW-620 colon): > 100 µM
- TGI (SNB-19 CNS): > 100 µM
- TGI (NCI-H460 lung): > 100 µM
- TGI (T-47D breast): > 100 µM
- TGI (DU-145 prostate): > 100 µM
- TGI (ACHN renal): > 100 µM
- TGI (SF-295 CNS): > 100 µM

Compound: CN(C)c1ccc(/C=N/NC2=N/C(=C\c3ccco3)C(=O)N2)cc1
- TGI (OVCAR-5 ovarian): > 100 µM
- TGI (NCI-H23 lung): > 100 µM
- TGI (UACC-257 melanoma): > 100 µM
- TGI (SW-620 colon): > 100 µM
- TGI (SNB-19 CNS): > 100 µM
- TGI (NCI-H460 lung): > 100 µM
- TGI (T-47D breast): > 100 µM
- TGI (DU-145 prostate): > 100 µM
- TGI (ACHN renal): > 100 µM
- TGI (SF-295 CNS): > 100 µM

Compound: COc1cccc(C2c3cc4c(cc3OC(N3CCOCC3)C2C)OCO4)c1O (centres undefined)
- TGI (OVCAR-5 ovarian): 60 µM
- TGI (NCI-H23 lung): 52.6 µM
- TGI (UACC-257 melanoma): > 83.3 µM
- TGI (SW-620 colon): > 75.2 µM
- TGI (SNB-19 CNS): 36.4 µM
- TGI (NCI-H460 lung): 20.4 µM
- TGI (T-47D breast): 36.4 µM
- TGI (DU-145 prostate): 26.6 µM
- TGI (ACHN renal): 72 µM
- TGI (SF-295 CNS): 42.9 µM
